Values of other authors as cited in patent US20080161413A1, “Agent for increasing adiponectin in blood” (YAMAHA HATSUDOKI KABUSHIKI KAISHA, priority 2006, published 2008).

Tested on: adiponectin
Settings: obese/diabetic mice

In the case of `COc1cc(C(C)=O)ccc1O` [apocynin], the production of adiponectin is listed as “increases”.
